# Values joined by “and” are separate entries in the source; they are usually repeats but may differ in a detail not shown here. Equal entries are not always repeated.
# Assays:
# Experiment in all cases: Enzyme Assay and Determination of the Inhibition Constants
# Plasminogen = Plasminogen (Homo sapiens, UniProt P00747); conditions: pH 7.4; 22 °C
# Method: (§1) Each enzyme was assayed with a set of different concentrations of each inhibitor. […] Ki(apparent) values were calculated from enzyme velocity curves using the software package BatchKi (BioKin Ltd, Madison, WI). These apparent inhibition constants were then converted to Ki values by assuming competitive inhibition and using the formula Ki = Ki(apparent)/(1 + S/Km).
# [1] = target: Tissue-type plasminogen activator (Homo sapiens, UniProt P00750)
# Method: as §1
# Prothrombin = Prothrombin (Homo sapiens, UniProt P00734)
# Method: as §1
# Serine protease 1 = Serine protease 1 (Homo sapiens, UniProt P07477); conditions: pH 7.4; 22 °C
# Method: as §1
# Serine protease hepsin = Serine protease hepsin (Homo sapiens, UniProt P05981)
# Method: as §1
# Coagulation factor X = Coagulation factor X (Homo sapiens, UniProt P00742)
# Method: as §1
# [2] = target: Urokinase-type plasminogen activator (Homo sapiens, UniProt P00749)
# Method: as §1
# [3] = target: T1, Urokinase-type plasminogen activator [179-431,I214M,N322A,S371A] (Homo sapiens, UniProt P00749, I214M/N322A/S371A)
# T1 construct: 179-431
# Method: as §1
# Tryptase beta-2 = Tryptase beta-2 (Homo sapiens, UniProt P20231)
# Chain of Tryptase beta-2 (P20231 as listed by the source): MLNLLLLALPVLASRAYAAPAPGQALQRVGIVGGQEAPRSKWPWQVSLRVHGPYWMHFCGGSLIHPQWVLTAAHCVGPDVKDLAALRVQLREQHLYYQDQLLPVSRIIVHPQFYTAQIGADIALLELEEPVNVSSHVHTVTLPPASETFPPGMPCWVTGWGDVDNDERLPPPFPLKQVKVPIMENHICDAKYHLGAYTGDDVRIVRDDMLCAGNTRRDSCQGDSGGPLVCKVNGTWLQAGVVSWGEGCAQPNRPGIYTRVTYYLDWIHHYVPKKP
# Method: as §1
# Chain of Serine protease hepsin (P05981 1-162 limits assumed): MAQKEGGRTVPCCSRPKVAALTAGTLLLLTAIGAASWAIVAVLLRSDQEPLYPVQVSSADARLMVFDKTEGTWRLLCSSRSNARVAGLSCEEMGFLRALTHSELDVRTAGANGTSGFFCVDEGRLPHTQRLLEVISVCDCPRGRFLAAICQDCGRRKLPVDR
# Chain of Serine protease hepsin (P05981 163-417 limits assumed): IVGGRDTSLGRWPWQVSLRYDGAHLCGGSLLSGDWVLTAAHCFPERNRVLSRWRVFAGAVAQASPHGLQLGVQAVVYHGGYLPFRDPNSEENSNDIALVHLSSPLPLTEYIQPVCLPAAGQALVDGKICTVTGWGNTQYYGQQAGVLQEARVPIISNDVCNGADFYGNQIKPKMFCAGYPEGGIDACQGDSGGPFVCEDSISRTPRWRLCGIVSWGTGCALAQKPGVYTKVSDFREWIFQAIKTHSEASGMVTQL
# Chain of Plasminogen (P00747 97-580 limits assumed): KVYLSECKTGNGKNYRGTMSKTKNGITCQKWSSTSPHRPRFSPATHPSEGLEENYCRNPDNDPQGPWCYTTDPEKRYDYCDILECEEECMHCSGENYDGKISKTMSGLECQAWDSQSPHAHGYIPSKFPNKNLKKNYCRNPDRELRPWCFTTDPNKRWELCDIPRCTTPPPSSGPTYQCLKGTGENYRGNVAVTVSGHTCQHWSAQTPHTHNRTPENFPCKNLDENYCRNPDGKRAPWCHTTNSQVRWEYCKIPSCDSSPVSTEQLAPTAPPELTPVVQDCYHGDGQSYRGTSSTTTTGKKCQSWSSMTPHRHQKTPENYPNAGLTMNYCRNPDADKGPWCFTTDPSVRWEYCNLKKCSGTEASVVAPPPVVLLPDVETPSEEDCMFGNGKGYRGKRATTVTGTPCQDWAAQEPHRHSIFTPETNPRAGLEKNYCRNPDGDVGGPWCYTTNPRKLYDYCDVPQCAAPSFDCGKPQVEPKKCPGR
# Chain of Plasminogen (P00747 581-810 limits assumed): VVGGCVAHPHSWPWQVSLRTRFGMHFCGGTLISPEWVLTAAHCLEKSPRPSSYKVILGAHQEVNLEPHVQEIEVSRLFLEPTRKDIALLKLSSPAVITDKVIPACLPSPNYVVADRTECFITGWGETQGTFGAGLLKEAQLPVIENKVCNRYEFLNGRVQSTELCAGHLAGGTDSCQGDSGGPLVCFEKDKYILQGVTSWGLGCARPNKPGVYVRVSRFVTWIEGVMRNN
# Chain of Serine protease 1 (P07477 whole entry): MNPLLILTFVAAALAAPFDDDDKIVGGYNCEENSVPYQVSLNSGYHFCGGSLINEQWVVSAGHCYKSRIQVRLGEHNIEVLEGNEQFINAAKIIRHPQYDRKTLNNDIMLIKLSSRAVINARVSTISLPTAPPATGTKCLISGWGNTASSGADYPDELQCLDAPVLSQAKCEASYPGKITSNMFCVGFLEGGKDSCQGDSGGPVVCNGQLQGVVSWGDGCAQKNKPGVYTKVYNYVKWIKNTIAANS
# Chain of Tissue-type plasminogen activator (P00750 whole entry): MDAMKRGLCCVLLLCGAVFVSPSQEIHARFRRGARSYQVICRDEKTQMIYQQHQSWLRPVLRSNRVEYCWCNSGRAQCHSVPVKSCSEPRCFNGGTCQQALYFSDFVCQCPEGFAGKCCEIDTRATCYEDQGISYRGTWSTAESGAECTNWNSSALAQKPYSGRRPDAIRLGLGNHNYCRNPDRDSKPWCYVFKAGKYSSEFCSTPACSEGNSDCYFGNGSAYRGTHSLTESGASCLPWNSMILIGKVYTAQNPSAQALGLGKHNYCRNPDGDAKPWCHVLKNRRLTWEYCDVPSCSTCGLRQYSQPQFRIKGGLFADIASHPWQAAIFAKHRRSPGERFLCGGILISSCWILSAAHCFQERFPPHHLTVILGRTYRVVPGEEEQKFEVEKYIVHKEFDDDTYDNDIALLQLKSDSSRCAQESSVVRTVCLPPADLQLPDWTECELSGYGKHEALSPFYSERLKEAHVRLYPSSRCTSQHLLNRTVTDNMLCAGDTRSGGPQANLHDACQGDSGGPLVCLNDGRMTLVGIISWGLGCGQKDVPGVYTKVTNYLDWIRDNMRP
# Chain of Coagulation factor X (P00742 41-179 limits assumed): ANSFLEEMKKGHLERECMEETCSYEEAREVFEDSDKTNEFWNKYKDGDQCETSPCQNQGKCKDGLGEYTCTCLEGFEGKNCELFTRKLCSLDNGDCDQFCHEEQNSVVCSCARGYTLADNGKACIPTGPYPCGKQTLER
# Chain of Coagulation factor X (P00742 235-488 limits assumed): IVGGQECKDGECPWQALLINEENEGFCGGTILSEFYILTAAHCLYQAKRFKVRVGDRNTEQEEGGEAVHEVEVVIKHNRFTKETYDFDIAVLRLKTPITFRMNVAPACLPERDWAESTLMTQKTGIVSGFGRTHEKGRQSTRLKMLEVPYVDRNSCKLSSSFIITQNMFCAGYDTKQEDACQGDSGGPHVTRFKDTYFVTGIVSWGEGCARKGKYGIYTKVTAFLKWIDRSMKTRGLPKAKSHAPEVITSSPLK
Ki (Plasminogen) [µM],Ki [1] [µM],Ki (Prothrombin) [µM],Ki (Serine protease 1) [µM],Ki (Serine protease hepsin) [µM],Ki (Coagulation factor X) [µM],Ki [2],Ki [3] [µM],Ki (Tryptase beta-2) [µM],SMILES
> 75,270,> 450,130,> 75,> 450,4.1 µM,–,–,"Nc1nc2cc(NC(=O)c3cccc(-c4ccccc4)c3O)ccc2[nH]1 [2-amino-5-[(2-hydroxy-3-phenylbenzene)amido]-1H-1,3-benzodiazol-3-ium]"
–,–,–,10,–,–,0.37 µM,39,4.7,"N=C(N)c1cc2nc(-c3cccc(-c4ccccc4)c3O)[nH]c2cc1F [2-{5-[amino(iminiumyl)methyl]-6-fluoro-1H-1,3-benzodiazol-2-yl}-6-phenylbenzen-1-olate]"
–,–,–,–,–,–,0.19 µM,3.9,–,"CC(C)COc1cccc(-c2nc3ccc(C(=N)N)cc3[nH]2)c1O [2-{5-[amino(iminiumyl)methyl]-1H-1,3-benzodiazol-2-yl}-6-(2-methylpropoxy)benzen-1-olate]"
–,–,–,–,–,–,0.15 µM,23,–,CC(C)COc1cccc(-c2nc3cc(F)c(C(=N)N)cc3[nH]2)c1O [CA-10]
130,180,54,9.6,–,70,0.1 µM and 0.2 µM,1.1,0.87,N=C(N)Nc1ccc(NC(=O)c2cc3ccccc3cc2O)cn1 [[amino({5-[(3-hydroxynaphthalene-2-)amido]pyridin-2-yl}amino)methylidene]azanium]
> 75,> 450,> 450,37,2.1,200,4.6 µM and 4.5 µM,42,–,"Nc1nc2cc(NC(=O)c3cc4ccccc4cc3O)ccc2[nH]1 [2-amino-5-[(3-hydroxynaphthalene-2-)amido]-1H-1,3-benzodiazol-3-ium]"
–,–,–,–,0.085,–,0.033 µM,–,–,N=C(N)c1ccc2[nH]c(-c3cccc(-c4ccccc4)c3O)cc2c1 [CRA-8696]
130,670,290,16,2.6,> 450,0.62 µM and 0.39 µM,10,2,NC(N)=Nc1ccc(NC(=O)c2cc3ccccc3cc2O)cc1 [[amino({4-[(3-hydroxynaphthalene-2-)amido]phenyl}amino)methylidene]azanium]
–,–,–,–,–,–,0.19 µM,4.4,–,N=C(N)c1ccc2nc(-c3cccc(OC4CCCC4)c3O)[nH]c2c1 [CA-06]
4,–,> 450,42,–,80,0.017 µM and 0.041 µM,0.28,–,"NC(N)=Nc1ccc(NC(=O)c2cc3ccccc3c(O)c2O)cn1 [[amino({5-[(3,4-dihydroxynaphthalene-2-)amido]pyridin-2-yl}amino)methylidene]azanium]"
–,–,–,–,–,–,–,–,2.5,"C[C@H]1CCCC[C@@H]1Oc1cccc(-c2nc3cc(C(=N)N)c(F)cc3[nH]2)c1O [2-{5-[amino(iminiumyl)methyl]-6-fluoro-1H-1,3-benzodiazol-2-yl}-6-{[(1S,2S)-2-methylcyclohexyl]oxy}benzen-1-olate]"

# — BindingDB's records for doi:10.1016/j.jmb.2004.09.032 (Celera, 2004)
